Assay results reported in publication PMC10119282, “Molecular characterization of AIFM2/FSP1 inhibition by iFSP1-like molecules” (Cell Death & Disease, 2023).
pKi: −log10 of the molar value. Values belong to the compound of their own block, whether it stands above or below them.

Legend:
[1] = tested on: Pfa1 Gpx4−/− overexpressing hFSP1 WT, hFSP1 F360L and mFSP1 WT; test: Cell viability response to N-myristoyltransferase inhibitor IMP-1088; type: cell-based, murine
Method: (§1) Cell Lines. 4-hydroxytamoxifen (TAM)-inducible Gpx4^−/− murine immortalized fibroblasts (Pfa1) were reported previously. These cells harbor two loxP-flanked Gpx4 alleles and stably express TAM inducible Cre recombinase allowing the genetic deletion of Gpx4 at will. For all experiments using Gpx4^−/− the well were treated with 4-hydroxitamoxifen (TAM) 1 µM. All cells were cultured with were cultured in DMEM-high glucose (4.5 g glucose/L) with 10% fetal bovine serum (FBS), Glutamax, and 1% penicillin/streptomycin (Gibco, Thermo Fischer) at 37 °C with 5% CO2 and verified to be negative for mycoplasma.
(§2) Cell viability assays. Alamar Blue method: Cells were seeded on 96-well plates (2000 cells per well) and treated with the compounds RSL3, iFSP1 and (liproxstatin-1) after plating. Cell viability was assessed 48 h (unless stated otherwise) after treatment using Alamar Blue as an indicator of viable cells. Alamar blue solution was made by dissolving of 1 g resazurin sodium salt (Thermo Fischer) in 200 mL sterile PBS and sterile filtrated through a 0.22 µm filter. Stock solutions were stored at 4 °C. The working solution was made freshly by adding 200 µL of the stock solution to 25 mL growth media. After 2–4 h incubation time, viability was estimated by measuring the fluorescence using a 540/35 excitation filter and a 590/20 emission on a Spark® microplate reader (Tecan, Zürich, Switzerland).

[2] = tested on: Pfa1 Gpx4−/− cell line overexpressing hFSP1, mFSP1 and hFSP1 F360L mutants; test: BODIPY 581/591 C11 oxidation (flow cytometry); type: cell-based, murine; settings: iFSP1 3 µM for 3 h with Lip-1; all conditions
Method: In total, 150,000 cells per well were seeded on 6-well dishes one day prior to the experiment. […] Cells were incubated with C11-BODIPY (581/591) (1 μM) for 30 min at 37 °C before they were harvested by trypsinisation. Subsequently, cells were resuspended in 500 μL of fresh PBS (DPBS, Gibco) and analyzed using a 488-nm laser excitation laser and fluorescence recorded on a (FACS Canto II, BD Biosciences). Data was collected from the FL1 detector (C11-BODIPY, Invitrogen) with a 502LP and 530/30 BP filter. At least 20,000 events were analyzed per sample. Data was analyzed using FlowJo Software version 10.8.1.

[3] = tested on: Pfa1 Gpx4−/− cells overexpressing human FSP1 (hFSP1); test: Cell viability (Alamar blue), dose-response toxicity in Gpx4-knockout cells expressing hFSP1; type: cell-based, murine; settings: cells treated with iFSP1
Method: as §1, §2
Codon-optimized Mus musculus (mouse) FSP1 (NP_001034283.1) and Homo sapiens (Human) FSP1 (NP_001185625.1) were synthesized by IDT as gBlocks^TM and subcloned into p442-IRES-blast vectors. The chimera constructs were generated based on the pairwise alignment between the gene of Homo sapiens (Human) and the Mus musculus (Mouse), all the chimeric constructs contain the murine isoform with one region exchanged to the human isoform. […]

hFSP1 WT = target: T1, hFSP1 WT (Homo sapiens, UniProt Q9BRQ8); test: Competition MST against pre-formed complex of hFSP1 WT and FSP1-Tracer; type: binding; settings: hFSP1 WT 5 µM and FSP1-Tracer 5 nM pre-formed complex
T1 construct: HisSUMO (cleaved yes); made in house; host or cells: E. coli BL21
T1 sequence (Q9BRQ8 1-373): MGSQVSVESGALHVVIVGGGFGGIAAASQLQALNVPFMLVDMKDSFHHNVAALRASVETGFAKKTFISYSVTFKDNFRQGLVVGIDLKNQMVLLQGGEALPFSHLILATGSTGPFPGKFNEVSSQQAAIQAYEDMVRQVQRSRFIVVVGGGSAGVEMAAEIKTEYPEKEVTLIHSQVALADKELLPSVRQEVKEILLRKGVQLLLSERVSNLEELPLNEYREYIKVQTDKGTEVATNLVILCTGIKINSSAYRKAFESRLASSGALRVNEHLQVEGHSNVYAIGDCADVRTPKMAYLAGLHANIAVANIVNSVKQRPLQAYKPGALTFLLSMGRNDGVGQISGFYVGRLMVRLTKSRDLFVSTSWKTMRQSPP
Method: FSP1 (human isoform 1, UniProt Q9BRQ8-1) WT (hFSP1 WT) and F360L (hFSP1 F360L) were expressed in E.coli BL21 as HisSUMO fusion protein. Cells were grown in lysogeny broth medium at 18 °C and induced with 0.5 mM isopropyl-β-thiogalactoside at a cell density A600 of 0.6. Cells were collected after overnight expression by centrifugation, resuspended in lysis buffer ([…], 50 mM Tris-HCl pH 8, 1 mM TCEP, 20 mM imidazole, protease inhibitor, DNase) and lysed by sonication. Cell debris was removed by centrifugation (30,000 × g) at 4 °C for 30 min, after which an IMAC purification was performed. Briefly, a HisTrap crude FF (5 mL) column was equilibrated to lysis buffer, lysates were loaded via the sample pump and the column was then washed with 50 mL lysis buffer. During the elution with a gradient to 100% IMAC elution buffer (300 mM NaCl, 50 mM Tris-HCl pH 8, 1 mM TCEP, 400 mM imidazole) over 100 mL, 5 mL fractions were collected. The pooled fractions were dialysed overnight in the presence of SenP2 SUMO protease at a ratio of 40:1 FSP1:SenP2. Afterwards, a reverse IMAC purification was performed on a HisTrap crude FF (5 mL) column. IMAC eluates were analysed by SDS PAGE and concentrated to 15 mL (hFSP1 WT) and 5 mL (hFSP1 F360L), respectively. […] Pure fractions were pooled (C12—D11 for hFSP1 WT and C7—D4 for hFSP1 F360L), analysed by SDS-PAGE (Supplementary Fig. 4) and concentrated to 5.8 mL at 285.9 µM (hFSP1 WT) and 1.2 mL at 269.5 µM (FSP1 F360L), flash frozen in liquid N2 and stored at −80 °C.
An MST buffer consisting of 1× phosphate-buffered saline (PBS; 137 mM NaCl, 2.7 mM KCl, 10 mM Na2HPO4, 1.8 mM KH2PO4, pH 7.4) with 2 mM reduced L-Glutathione (GSH, Sigma Aldrich, product number G4251) and 0.05% (v/v) Tween 20 (ITW Reagents, molecular biology grade, product number A4974) was used for all MST measurements. […] KD values were determined by applying a Hill-fit to a plot of Fnorm vs. hFSP1 WT/F360L concentration. […]

[4] = tested on: Pfa1 cells overexpressing the mock, hFSP1 WT, hFSP1 F360L and mFSP1 WT; test: Cell viability response to GPX4 inhibitor RSL3; type: cell-based, murine; settings: Alamar blue viability
Method: as §1, §2

SMILES: Cc1nn(C)c(C)c1CCOc1c(-c2ccc3c(c2)c(CN(C)C)nn3C)ccc(F)c1F [IMP-1088]
ferroptosis induction across FSP1 variants [1]: all mutants undergo ferroptosis similarly

SMILES: Clc1cccc(CN=C2Nc3ccccc3NC23CCNCC3)c1 [Lip-1, liproxstatin-1]
rescue of the iFSP1-induced increase in BODIPY-C11 signal [2]: could be rescued
rescue from iFSP1-induced ferroptosis [3]: rescuing the cells

pKi (hFSP1 WT): 6.34
SMILES: NC(=O)C1=CN(C2OC(COP(=O)(O)OP(=O)(O)OCC3OC(n4cnc5c(N)ncnc54)C(O)C3O)C(O)C2O)C=CC1 (centres unmarked) [NADH]

SMILES: COC(=O)c1ccc([C@@H]2c3[nH]c4ccccc4c3C[C@@H](C(=O)OC)N2C(=O)CCl)cc1 [RSL3, (1 S,3 R)-RSL3]
difference in response to the GPX4 inhibitor between cells overexpressing the FSP1 variants [4]: no difference in response
